Source: patent US20260285903A1, “SYNTHESIZED BIOLOGICALLY ACTIVE COMPOUNDS AND METHODS OF MAKING AND USING” (Georgia State University Research Foundation, Inc., priority 2023, published 2026)

Experiments:
[1] = test system: NF-κB signaling pathway; test: NF-κB-dependent luciferase activity in NF-κB/293/GFP-Luc cells treated with TNF-α; format: cell-based; settings: for RLU (% with TNFα): MLY compounds; for RLU (% with TNFα) / reduction of NF-κB activation: TNF-α 10 ng/ml, 18 hours; for Activity compared with M13: Table 2B; for RLU (% with TNF-α), range: Table 2B bins, 1080 min; for RLU (% with TNF-α), range / reduction of NF-κB activation: 20 µM; for IC50: TNF-α stimulated, FIG. 9, read-out: dose to reduce the NF-κB activation by 50%
Protocol: First, the anti-inflammatory activity of MLY compounds on the NF-κB signaling pathway was examined using the NF-xB/293/GFP-LucTnl cell line (System Biosciences). This cell line is specifically designed for use in quantitatively monitoring (by luciferase intensity) transcriptional activation related to the NF-κB signal transduction pathway in vitro. Treatment of NF-κB/293/GFP-Luc™ cells with 10 ng/ml TNF-α for 18 hours induced strong activation of the NF-κB signal transduction pathway (FIGS. 8A and 8B). […] MLY2 and MLY8 induced a strongest 90% reduction of NF-κB activation the anti-inflammatory effect of MLY 2 and 8 was dose-related (FIG. 9). The dose to reduce the NF-κB activation by 50% was […] for M13, 5 μM for MLY2 and 11 μM for MLY8 (FIG. 9).

[2] = Incubation with mouse intestinal microsomes (HPLC); format: in vitro ADME; settings: incubation for 30 minutes
Source text: The biopharmaceutical properties of the synthesized M13 (5-glutathione-6-shogaol) were characterized.

Row | Compound | RLU (% with TNFα) [1] [%] | Activity compared with M13 [1] | relative content retained of the input [2] [%] | RLU (% with TNF-α), range [1] [%] | reduction of NF-κB activation [1] [%] | IC50 [1] [µM]
1 | CCCCCC(CC(=O)CCc1ccc(O)c(OC)c1)SC[C@H](NC(=O)[C@@H](N)CC(=O)O)C(=O)N[C@H](C(=O)O)[C@@H](C)CC (stereo partly drawn) [MLY-14, Asp(alpha)-Cys(6-shogaol)-Ile] | 80.67 ± 11.28 | = M13 (70%~85%) | – | – | – | –
2 | CCCCCC(CC(=O)CCc1ccc(O)c(OC)c1)SC[C@H](NC(=O)[C@@H](N)CCC(=O)O)C(=O)N[C@@H](C)C(=O)O (stereo partly drawn) [MLY-1, Glu(alpha)-Cys(6-shogaol)-Ala] | 30.3 ± 11.78 | >>M13 (15~35%) | – | – | – | –
3 | CCCCCC(CC(=O)CCc1ccc(O)c(OC)c1)SC[C@H](NC(=O)[C@@H](N)CCC(=O)O)C(=O)N1CCC[C@H]1C(=O)O (stereo partly drawn) [MLY-3, Glu(alpha)-Cys(6-shogaol)-Pro] | 6.54 ± 8.56 | >M13 (35%~70%) | – | – | – | –
4 | CCCCCC(CC(=O)CCc1ccc(O)c(OC)c1)SC[C@H](NC(=O)[C@@H](N)CC(=O)O)C(=O)N[C@@H](Cc1ccc(O)cc1)C(=O)O (stereo partly drawn) [MLY-12, Asp(alpha)-Cys(6-shogaol)-Tyr] | 47.43 ± 5.5 | >M13 (35%~70%) | – | – | – | –
5 | CCCCCC(CC(=O)CCc1ccc(O)c(OC)c1)SC[C@H](NC(=O)[C@@H](N)CC(=O)O)C(=O)N[C@@H](Cc1ccccc1)C(=O)O (stereo partly drawn) [MLY-6, Asp(alpha)-Cys(6-shogaol)-Phe] | 50.7 ± 1.38 | >M13 (35%~70%) | – | – | – | –
6 | CCCCC/C=C/C(=O)CCc1ccc(O)c(OC)c1 [6-shogaol, reference compound] | – | – | 61 | – | – | –
7 | CCCCCC(CC(=O)CCc1ccc(O)c(OC)c1)SC[C@H](NC(=O)[C@@H](N)CC(=O)O)C(=O)N[C@@H](C)C(=O)O (stereo partly drawn) [MLY-19, Asp(alpha)-Cys(6-shogaol)-Ala] | 67.04 ± 11.04 | >M13 (35%~70%) | – | – | – | –
8 | CCCCCC(CC(=O)CCc1ccc(O)c(OC)c1)SC[C@H](NC(=O)[C@@H](N)CC(=O)O)C(=O)N1CCC[C@H]1C(=O)O (stereo partly drawn) [MLY-9, Asp(alpha)-Cys(6-shogaol)-Pro] | 92.85 ± 2.15 | <M13 (>90%) | – | >90 | – | –
9 | CCCCCC(CC(=O)CCc1ccc(O)c(OC)c1)SC[C@H](NC(=O)[C@@H](N)CCC(=O)O)C(=O)N[C@H](C(=O)O)[C@@H](C)CC (stereo partly drawn) [MLY-16, Glu(alpha)-Cys(6-shogaol)-Ile] | 68.19 ± 4.46 | >M13 (35%~70%) | – | – | – | –
10 | CCCCCC(CC(=O)CCc1ccc(O)c(OC)c1)SC[C@H](NC(=O)[C@@H](N)CC(=O)O)C(=O)N[C@H](C(=O)O)C(C)C (stereo partly drawn) [MLY-10, Asp(alpha)-Cys(6-shogaol)-Val] | 66.68 ± 11.06 | >M13 (35%~70%) | – | – | – | –
11 | CCCCCC(CC(=O)CCc1ccc(O)c(OC)c1)SC[C@H](NC(=O)[C@@H](N)CCC(=O)O)C(=O)N[C@@H](Cc1c[nH]c2ccccc12)C(=O)O (stereo partly drawn) [MLY-4, Glu(alpha)-Cys(6-shogaol)-Trp] | 80.65 ± 2.22 | = M13 (70%~85%) | – | – | – | –
12 | CCCCCC(CC(=O)CCc1ccc(O)c(OC)c1)SC[C@H](NC(=O)[C@@H](N)CC(=O)O)C(=O)NCC(=O)O (stereo partly drawn) [MLY-18, Asp(alpha)-Cys(6-shogaol)-Gly] | 112.31 ± 7.28 | <M13 (>90%) | – | >90 | – | –
13 | CCCCCC(CC(=O)CCc1ccc(O)c(OC)c1)SC[C@H](NC(=O)[C@@H](N)CCC(=O)O)C(=O)N[C@@H](CC(C)C)C(=O)O (stereo partly drawn) [MLY-2, Glu(alpha)-Cys(6-shogaol)-Leu] | 0.78 ± 0.54 | >>>>M13 (0~5%) | – | – | 90 | 5
14 | CCCCCC(CC(=O)CCc1ccc(O)c(OC)c1)SC[C@H](NC(=O)[C@@H](N)CC(=O)O)C(=O)N[C@@H](CC(C)C)C(=O)O (stereo partly drawn) [MLY-7, Asp(alpha)-Cys(6-shogaol)-Leu] | 38.6 ± 3.96 | >M13 (35%~70%) | – | – | – | –
15 | CCCCCC(CC(=O)CCc1ccc(O)c(OC)c1)SC[C@H](NC(=O)[C@@H](N)CCC(=O)O)C(=O)N[C@H](C(=O)O)C(C)C (stereo partly drawn) [MLY-17, Glu(alpha)-Cys(6-shogaol)-Val] | 45.13 ±1.96 | >M13 (35%~70%) | – | – | – | –
16 | CCCCCC(CC(=O)CCc1ccc(O)c(OC)c1)SC[C@H](NC(=O)[C@@H](N)CCC(=O)O)C(=O)N[C@@H](CCSC)C(=O)O (stereo partly drawn) [MLY-13, Glu(alpha)-Cys(6-shogaol)-Met] | 60.22 ± 13.55 | >M13 (35%~70%) | – | – | – | –
17 | CCCCCC(CC(=O)CCc1ccc(O)c(OC)c1)SC[C@H](NC(=O)[C@@H](N)CCC(=O)O)C(=O)N[C@@H](Cc1ccccc1)C(=O)O (stereo partly drawn) [MLY-15, Glu(alpha)-Cys(6-shogaol)-Phe] | 47.98 ± 9.35 | >M13 (35%~70%) | – | – | – | –
18 | CCCCCC(CC(=O)CCc1ccc(O)c(OC)c1)SC[C@H](NC(=O)[C@@H](N)CC(=O)O)C(=O)N[C@@H](Cc1c[nH]c2ccccc12)C(=O)O (stereo partly drawn) [MLY-11, Asp(alpha)-Cys(6-shogaol)-Trp] | 24.75 ± 0.79 | >>M13 (15~35%) | – | – | – | –
19 | CCCCCC(CC(=O)CCc1ccc(O)c(OC)c1)SC[C@H](NC(=O)[C@@H](N)CCC(=O)O)C(=O)N[C@@H](Cc1ccc(O)cc1)C(=O)O (stereo partly drawn) [MLY-5, Glu(alpha)-Cys(6-shogaol)-Tyr] | 67.18 ± 3.27 | >M13 (35%~70%) | – | – | – | –
20 | CCCCCC(CC(=O)CCc1ccc(O)c(OC)c1)SC[C@H](NC(=O)[C@@H](N)CC(=O)O)C(=O)N[C@@H](CCSC)C(=O)O (stereo partly drawn) [MLY-8, Asp(alpha)-Cys(6-shogaol)-Met] | 8.04 ± 4.06 | >>>M13 (5%~15%) | – | – | 90 | 11
